Reference: patent publication US8399480B2, “Hydroxymethyl pyrrolidines as beta 3 adrenergic receptor agonists” (Merck Sharp & Dohme Corp., priority 2008, dated 2013)
Read-outs that look alike come from different tables or passages of the source. Each block holds one compound with its values, some of them ahead of it.

Target: T1, human β3 adrenergic receptor (Homo sapiens, UniProt P13945)
T1 construct: expressed in transfected cells; host or cells: Chinese hamster ovary (CHO) cells, stably transfected
Experiment: Functional assay: cAMP production (LANCE TR-FRET) in CHO cells stably transfected with cloned β3 adrenergic receptor
Format: cell-based
Protocol: Chinese hamster ovary (CHO) cells, stably transfected with the cloned β-adrenergic receptor (β1, β2 or β3) are harvested after 3 days of subculturing. Harvesting of cells is done with Enzyme-free Dissociation Media (Specialty Media). Cells are then counted and resuspended in assay buffer (Hank's Balanced salt solution supplemented with 5 mM HEPES, 0.1% BSA) containing a phosphodiesterase inhibitor (IBMX, 0.6 mM). The reaction is initiated by mixing 6,000 cells in 6 μL with 6 μL Alexa Fluor labeled cAMP antibody (LANCE™ kit) which is then added to an assay well containing 12 μL of compound (diluted in assay buffer to 2× final concentration). The reaction proceeds for 30 min at room temperature and is terminated by the addition of 24 μL detection buffer (LANCE™ kit). The assay plate is then incubated for 1 h at room temperature and time-resolved fluorescence measured on a Perkin Elmer Envision reader or equivalent. The unknown cAMP level is determined by comparing fluorescence levels to a cAMP standard curve.
The non-selective, full agonist β-adrenergic ligand isoproterenol is used at all three receptors to determine maximal stimulation. […] Data are analyzed using Microsoft Excel and Graphpad Prism or an internally developed data analysis software package.

[1] = Table 4, human β3 functional activity, read-out: Human β Binding
[2] = given as a range, cAMP, CHO cells, read-out: human β3 functional activity
[3] = Table 5, read-out: Human β3 Functional
[4] = Table 12, read-out: Human β3 Functional
[5] = human β3 functional activity, shown as ranges, Table 13, read-out: Human β3 Functional
[6] = Table 11, read-out: Human β3 Functional

T1 sequence (P13945 whole entry): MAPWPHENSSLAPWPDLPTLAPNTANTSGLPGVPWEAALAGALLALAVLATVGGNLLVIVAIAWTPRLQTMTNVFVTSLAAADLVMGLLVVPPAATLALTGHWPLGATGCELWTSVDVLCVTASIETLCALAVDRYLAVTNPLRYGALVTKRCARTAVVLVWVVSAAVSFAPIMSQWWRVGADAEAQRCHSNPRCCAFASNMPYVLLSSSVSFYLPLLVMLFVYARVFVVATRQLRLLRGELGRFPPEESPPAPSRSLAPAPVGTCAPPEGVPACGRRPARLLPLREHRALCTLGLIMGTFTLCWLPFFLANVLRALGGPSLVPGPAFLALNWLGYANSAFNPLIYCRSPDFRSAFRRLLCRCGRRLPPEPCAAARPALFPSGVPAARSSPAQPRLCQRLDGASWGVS

Structure (SMILES): O=C(Cc1nnc[nH]1)Nc1ccc(C[C@@H]2CC[C@H]([C@H](O)c3ccccc3)N2)cc1 [Example 73]
- EC50 [1]: 11 to 100 nM

Structure (SMILES): Nc1nc(CC(=O)Nc2ccc(C[C@H]3CC[C@H]([C@H](O)c4ccccc4)N3)cc2Br)cs1 [Example 313, 2-(2-Amino-1,3-thiazol-4-yl)-N-[2-bromo-4-({(2R,5R)-5-[(R)-hydroxy(phenyl)methyl]pyrrolidin-2-yl}methyl)phenyl]acetamide]
- EC50 [2]: 101 to 1000 nM

Structure (SMILES): O=C(Cn1ccc(=O)nc1)Nc1ccc(C[C@@H]2CC[C@H]([C@H](O)c3ccccc3)N2)cc1 [Example 66]
- EC50 [1]: 101 to 1000 nM

Structure (SMILES): O=C(Cn1ncc2ccccc2c1=O)Nc1ccc(C[C@@H]2CC[C@H]([C@H](O)c3ccccc3)N2)cc1 [Example 49]
- EC50 [1]: 1 to 10 nM

Structure (SMILES): COCCC(C(=O)Nc1ccc(C[C@@H]2CC[C@H]([C@H](O)c3ccccc3)N2)cc1)n1cccn1 (single isomer, unassigned) [Example 224]
- EC50 [3]: 11 to 100 nM

Structure (SMILES): Nc1nc2c(s1)CCC2C(=O)Nc1ccc(CC2CCC(C(O)c3ccc(F)c(F)c3)N2)cc1 (single isomer, unassigned) [Example 292]
- EC50 [4]: < 1 nM

Structure (SMILES): CC(C(=O)Nc1ccc(C[C@@H]2CC[C@H]([C@H](O)c3ccccc3)N2)cc1)c1cnccn1 (single isomer, unassigned) [Example 207]
- EC50 [3]: 1 to 10 nM

Structure (SMILES): O=C(Cn1ccncc1=O)Nc1ccc(C[C@@H]2CC[C@H]([C@H](O)c3ccccc3)N2)cc1 [Example 67]
- EC50 [1]: 11 to 100 nM

Structure (SMILES): O=C(Cc1c(F)cccc1F)Nc1ccc(C[C@@H]2CC[C@H]([C@H](O)c3ccccc3)N2)cc1 [Example 71]
- EC50 [1]: 1 to 10 nM

Structure (SMILES): O=C(Cc1nnn[nH]1)Nc1ccc(C[C@@H]2CC[C@H]([C@H](O)c3ccccc3)N2)cc1 [Example 75]
- EC50 [1]: 11 to 100 nM

Structure (SMILES): O=C(Nc1ccc(C[C@@H]2CC[C@H]([C@H](O)c3ccccc3)N2)cc1)c1ccccc1-n1nccn1 [Example 11]
- EC50 [1]: 11 to 100 nM

Structure (SMILES): CC(C(=O)Nc1ccc(C[C@@H]2CC[C@H]([C@H](O)c3ccccc3)N2)cc1)c1nnc[nH]1 (single isomer, unassigned) [Example 168]
- EC50 [3]: 1 to 10 nM

Structure (SMILES): CC(Oc1cccnn1)C(=O)Nc1ccc(C[C@@H]2CC[C@H]([C@H](O)c3ccccc3)N2)cc1 (single isomer, unassigned) [Example 214]
- EC50 [3]: 101 to 1000 nM

Structure (SMILES): Cn1nccc1-c1nnc(CC(=O)Nc2ccc(C[C@@H]3CC[C@H]([C@H](O)c4ccccc4)N3)cc2)[nH]1 [Example 28]
- EC50 [1]: 11 to 100 nM

Structure (SMILES): COCCC(C(=O)Nc1ccc(C[C@@H]2CC[C@H]([C@H](O)c3ccccc3)N2)cc1)n1cccn1 (single isomer, unassigned) [Example 223]
- EC50 [3]: 1 to 10 nM

Structure (SMILES): O=C(Cn1cncn1)Nc1ccc(C[C@@H]2CC[C@H]([C@H](O)c3ccccc3)N2)cc1 [Example 80]
- EC50 [1]: 11 to 100 nM

Structure (SMILES): COC(=O)c1cn(C(C)C(=O)Nc2ccc(C[C@@H]3CC[C@H]([C@H](O)c4ccccc4)N3)cc2)nn1 (single isomer, unassigned) [Example 189]
- EC50 [3]: 11 to 100 nM

Structure (SMILES): Cc1cc(C(C)C(=O)Nc2ccc(C[C@@H]3CC[C@H]([C@H](O)c4ccccc4)N3)cc2)[nH]n1 (single isomer, unassigned) [Example 184]
- EC50 [3]: 11 to 100 nM

Structure (SMILES): COc1ncncc1C(C)C(=O)Nc1ccc(C[C@@H]2CC[C@H]([C@H](O)c3ccccc3)N2)cc1 (single isomer, unassigned) [Example 212]
- EC50 [3]: 11 to 100 nM

Structure (SMILES): CC(NC(=O)c1c(F)cccc1F)C(=O)Nc1ccc(C[C@@H]2CC[C@H]([C@H](O)c3ccccc3)N2)cc1 (stereo partly shown) [Example 267]
- EC50 (Table 9, read-out: Human β^3 Functional): < 1 nM

Structure (SMILES): O=C(Cn1ncccc1=O)Nc1ccc(C[C@@H]2CC[C@H]([C@H](O)c3ccc(F)cc3)N2)cc1 [Example 287]
- EC50 [6]: 1 to 10 nM

Structure (SMILES): CC(C(=O)Nc1ccc(C[C@@H]2CC[C@H]([C@H](O)c3ccccc3)N2)cc1)n1cnc2ccccc2c1=O (single isomer, unassigned) [Example 166]
- EC50 [3]: 1 to 10 nM

Structure (SMILES): O=C(Nc1ccc(C[C@@H]2CC[C@H]([C@H](O)c3ccccc3)N2)cc1)N1CCc2cccnc21 [Example 257]
- EC50 (Table 8, read-out: Human β3 Functional): 101 to 1000 nM

Structure (SMILES): O=C(Cc1cccc(F)c1F)Nc1ccc(C[C@@H]2CC[C@H]([C@H](O)c3ccccc3)N2)cc1 [Example 72]
- EC50 [1]: 11 to 100 nM

Structure (SMILES): O=C(Cc1nnc(-c2ccccc2)[nH]1)Nc1ccc(C[C@@H]2CC[C@H]([C@H](O)c3ccccc3)N2)cc1 [Example 22]
- EC50 [1]: < 1 nM

Structure (SMILES): CC(C(=O)Nc1ccc(C[C@@H]2CC[C@H]([C@H](O)c3ccccc3)N2)cc1)n1ncccc1=O (single isomer, unassigned) [Example 162]
- EC50 [3]: 1 to 10 nM

Structure (SMILES): O=C(Cc1cccnc1)Nc1ccc(C[C@@H]2CC[C@H]([C@H](O)c3ccccc3)N2)cc1 [Example 44]
- EC50 [1]: 101 to 1000 nM

Structure (SMILES): O=C(Cc1ccncc1)Nc1ccc(C[C@@H]2CC[C@H]([C@H](O)c3ccccc3)N2)cc1 [Example 45]
- EC50 [1]: 1000 to 3000 nM

Structure (SMILES): CCC(C(=O)Nc1ccc(C[C@@H]2CC[C@H]([C@H](O)c3ccccc3)N2)cc1)n1cccn1 (single isomer, unassigned) [Example 219]
- EC50 [3]: 1 to 10 nM

Structure (SMILES): C[C@H](NS(=O)(=O)c1ccc(F)cc1)C(=O)Nc1ccc(C[C@@H]2CC[C@H]([C@H](O)c3ccccc3)N2)cc1 [Example 264, (2S)-2-{[(4-Fluorophenyl)sulfonyl]amino}-N-[4-({(2S,5R)-5-[(R)-hydroxy(phenyl)methyl]pyrrolidin-2-yl}methyl)phenyl]propanamide]
- EC50 [2]: 11 to 100 nM

Structure (SMILES): Nc1nc2c(s1)CCC2C(=O)Nc1ccc(CC2CCC(C(O)c3ccc(F)c(F)c3)N2)cc1 (single isomer, unassigned) [Example 288]
- EC50 [4]: 11 to 100 nM

Structure (SMILES): O=C(Nc1ccc(C[C@@H]2CC[C@H]([C@H](O)c3ccccc3)N2)cc1)c1ccccc1-c1ncc[nH]1 [Example 12]
- EC50 [1]: 11 to 100 nM

Structure (SMILES): Cc1nnc(-c2cccc(S(=O)(=O)Nc3ccc(C[C@@H]4CC[C@H]([C@H](O)c5ccccc5)N4)cc3)c2)o1 [Example 242]
- EC50 (Table 7, β3AR-cAMP, read-out: Human β3 Functional): 101 to 1000 nM

Second part, the compound after the results:

- EC50 [3]: 1 to 10 nM
Structure (SMILES): O=C(Nc1ccc(C[C@@H]2CC[C@H]([C@H](O)c3ccccc3)N2)cc1)C1CCn2nnnc21 (single isomer, unassigned) [Example 131]

- EC50 [3]: 101 to 1000 nM
Structure (SMILES): O=C(Nc1ccc(C[C@@H]2CC[C@H]([C@H](O)c3ccccc3)N2)cc1)C1CCc2sc(-c3ccc(F)cc3)nc21 (single isomer, unassigned) [Example 122]

- EC50 [5]: 11 to 100 nM
Structure (SMILES): O=C(Nc1ccc(C[C@@H]2CC[C@H]([C@H](O)c3cccc(Cl)c3)N2)cc1)[C@H]1CCc2scnc21 [Example 296]

- EC50 [3]: 1 to 10 nM
Structure (SMILES): Cc1nc2c(s1)CCCC2C(=O)Nc1ccc(C[C@@H]2CC[C@H]([C@H](O)c3ccccc3)N2)cc1 (single isomer, unassigned) [Example 121]

- EC50 [3]: 11 to 100 nM
Structure (SMILES): O=C(Nc1ccc(C[C@@H]2CC[C@H]([C@H](O)c3ccccc3)N2)cc1)C1CCc2ccccc21 (single isomer, unassigned) [Example 110]

- EC50 [3]: 1 to 10 nM
Structure (SMILES): O=C(Nc1ccc(C[C@@H]2CC[C@H]([C@H](O)c3ccccc3)N2)cc1)C1CCn2nnnc21 (single isomer, unassigned) [Example 130]

- EC50 [3]: 101 to 1000 nM
Structure (SMILES): O=C(Nc1ccc(C[C@@H]2CC[C@H]([C@H](O)c3ccccc3)N2)cc1)C1CCc2ccccc21 (single isomer, unassigned) [Example 111]

- EC50 [3]: 1 to 10 nM
Structure (SMILES): Cc1noc2c1CCC2C(=O)Nc1ccc(C[C@@H]2CC[C@H]([C@H](O)c3ccccc3)N2)cc1 (single isomer, unassigned) [Example 141]

- EC50 [3]: 1 to 10 nM
Structure (SMILES): Cc1nnc2n1CCC2C(=O)Nc1ccc(C[C@@H]2CC[C@H]([C@H](O)c3ccccc3)N2)cc1 (single isomer, unassigned) [Example 125]

- EC50 [3]: 11 to 100 nM
Structure (SMILES): O=C(Nc1ccc(C[C@@H]2CC[C@H]([C@H](O)c3ccccc3)N2)cc1)C1CCCc2ccnn21 (single isomer, unassigned) [Example 157]

- EC50 [5]: < 1 nM
Structure (SMILES): Nc1nc2c(s1)CCC2C(=O)Nc1ccc(CC2CCC(C(O)c3cccc(Cl)c3)N2)cc1 (single isomer, unassigned) [Example 295]

- EC50 [3]: < 1 nM
Structure (SMILES): O=C(Nc1ccc(C[C@@H]2CC[C@H]([C@H](O)c3ccccc3)N2)cc1)C1CCc2sc(Br)nc21 (single isomer, unassigned) [Example 145]

- EC50 [5]: 11 to 100 nM
Structure (SMILES): O=C(Nc1ccc(CC2CCC(C(O)c3cccc(Cl)c3)N2)cc1)C1CCc2sc(Br)nc21 (single isomer, unassigned) [Example 299]

- EC50 [3]: 1 to 10 nM
Structure (SMILES): Cc1n[nH]c2c1CCC2C(=O)Nc1ccc(C[C@@H]2CC[C@H]([C@H](O)c3ccccc3)N2)cc1 (single isomer, unassigned) [Example 139]

- EC50 [6]: < 1 nM
Structure (SMILES): Nc1nc2c(s1)CCC2C(=O)Nc1ccc(CC2CCC(C(O)c3ccc(F)cc3)N2)cc1 (single isomer, unassigned) [Example 283]

- EC50 [3]: 1 to 10 nM
Structure (SMILES): Nc1nc2c(s1)CCCC2C(=O)Nc1ccc(C[C@@H]2CC[C@H]([C@H](O)c3ccccc3)N2)cc1 (single isomer, unassigned) [Example 116]

- EC50 [1]: 11 to 100 nM
Structure (SMILES): Cc1csc(CC(=O)Nc2ccc(C[C@@H]3CC[C@H]([C@H](O)c4ccccc4)N3)cc2)n1 [Example 8]

- EC50 [3]: 101 to 1000 nM
Structure (SMILES): O=C(O)c1nc2c(s1)CCC2C(=O)Nc1ccc(C[C@@H]2CC[C@H]([C@H](O)c3ccccc3)N2)cc1 (single isomer, unassigned) [Example 142]

- EC50 [3]: 11 to 100 nM
Structure (SMILES): O=C(Nc1ccc(C[C@@H]2CC[C@H]([C@H](O)c3ccccc3)N2)cc1)C1CCc2cn[nH]c21 (single isomer, unassigned) [Example 136]
